Assays:
Ra3055 (WT) = target: T1, Ra3055 (WT) (Hominimerdicola alba, UniProt E9SHH5); assay: isothermal titration calorimetry; assay type: binding; details: 50 mM sodium phosphate, 150 mM NaCl, pH 7.5; single-site fit
T1 construct: gene CUS_6909; full-length multimodular CBM4_9 - Ig-like - GH9 - CBM37

Ra3055 TM3 [1] = target: T2, Ra3055 TM3 (Hominimerdicola alba, UniProt E9SHH5); assay: isothermal titration calorimetry; assay type: binding; details: 50 mM sodium phosphate, 150 mM NaCl, pH 7.5; single-site fit
T2 construct: gene CUS_6909; truncation to Ig-like - GH9 (no CBM4_9, no CBM37); pET-46, E. coli

Ra3055 TM1 [2] = target: T3, Ra3055 TM1 (Hominimerdicola alba, UniProt E9SHH5); assay: isothermal titration calorimetry; assay type: binding; details: 50 mM sodium phosphate, 150 mM NaCl, pH 7.5; single-site fit
T3 construct: gene CUS_6909; truncation without N-terminal CBM4_9 (Ig-like - GH9 - CBM37); pET-46, E. coli

Ra3055 TM2 [3] = target: T4, Ra3055 TM2 (Hominimerdicola alba, UniProt E9SHH5); assay: isothermal titration calorimetry; assay type: binding; details: 50 mM sodium phosphate, 150 mM NaCl, pH 7.5; single-site fit
T4 construct: gene CUS_6909; truncation without C-terminal CBM37 (CBM4_9 - Ig-like - GH9); pET-46, E. coli

Ra3055 TM1 [4] = target: T3, Ra3055 TM1; assay: cellobiose release by HPAEC-PAD, Michaelis-Menten fit; assay type: biochemical; details: 0.01-30 mM cellotetraose, 10 min; pH and temperature of kinetics not stated
Source text: cellobiose release by HPAEC-PAD, Michaelis-Menten fit on Ra3055 TM1

Ra3055 TM2 [5] = target: T4, Ra3055 TM2; assay: as above; assay type: biochemical; details: 0.01-30 mM cellotetraose, 10 min; pH and temperature of kinetics not stated
Source text: cellobiose release by HPAEC-PAD, Michaelis-Menten fit on Ra3055 TM2

Ra3055 TM4 = target: T5, Ra3055 TM4 (Hominimerdicola alba, UniProt E9SHH5); assay: as above; assay type: biochemical; details: 0.01-30 mM cellotetraose, 10 min; pH and temperature of kinetics not stated
T5 construct: gene CUS_6909; GH9 catalytic domain only; pET-46, E. coli
Source text: cellobiose release by HPAEC-PAD, Michaelis-Menten fit on Ra3055 TM4

Ra3055 TM3 [6] = target: T2, Ra3055 TM3; assay: as above; assay type: biochemical; details: 0.01-30 mM cellotetraose, 10 min; pH and temperature of kinetics not stated
Source text: cellobiose release by HPAEC-PAD, Michaelis-Menten fit on Ra3055 TM3

T2 sequence (E9SHH5 entry or part of it): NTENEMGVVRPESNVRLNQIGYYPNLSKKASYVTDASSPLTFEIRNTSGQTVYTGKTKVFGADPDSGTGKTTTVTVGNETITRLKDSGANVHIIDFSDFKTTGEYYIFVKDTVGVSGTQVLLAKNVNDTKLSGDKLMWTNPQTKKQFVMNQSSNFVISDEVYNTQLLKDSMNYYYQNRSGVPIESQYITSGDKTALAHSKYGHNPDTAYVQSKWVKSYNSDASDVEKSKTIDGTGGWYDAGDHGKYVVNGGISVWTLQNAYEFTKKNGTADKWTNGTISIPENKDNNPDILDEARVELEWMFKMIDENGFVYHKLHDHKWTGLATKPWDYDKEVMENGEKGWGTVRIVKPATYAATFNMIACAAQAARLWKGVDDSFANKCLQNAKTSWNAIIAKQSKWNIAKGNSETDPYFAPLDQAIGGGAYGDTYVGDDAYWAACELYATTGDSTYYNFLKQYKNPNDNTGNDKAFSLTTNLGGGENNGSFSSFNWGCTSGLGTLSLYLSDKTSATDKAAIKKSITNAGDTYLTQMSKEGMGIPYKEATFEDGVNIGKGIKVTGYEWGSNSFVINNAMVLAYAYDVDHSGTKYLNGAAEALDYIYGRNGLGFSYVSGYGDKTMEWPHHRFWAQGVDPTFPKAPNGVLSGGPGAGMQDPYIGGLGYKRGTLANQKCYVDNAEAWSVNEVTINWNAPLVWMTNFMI
T3 sequence (E9SHH5 entry or part of it): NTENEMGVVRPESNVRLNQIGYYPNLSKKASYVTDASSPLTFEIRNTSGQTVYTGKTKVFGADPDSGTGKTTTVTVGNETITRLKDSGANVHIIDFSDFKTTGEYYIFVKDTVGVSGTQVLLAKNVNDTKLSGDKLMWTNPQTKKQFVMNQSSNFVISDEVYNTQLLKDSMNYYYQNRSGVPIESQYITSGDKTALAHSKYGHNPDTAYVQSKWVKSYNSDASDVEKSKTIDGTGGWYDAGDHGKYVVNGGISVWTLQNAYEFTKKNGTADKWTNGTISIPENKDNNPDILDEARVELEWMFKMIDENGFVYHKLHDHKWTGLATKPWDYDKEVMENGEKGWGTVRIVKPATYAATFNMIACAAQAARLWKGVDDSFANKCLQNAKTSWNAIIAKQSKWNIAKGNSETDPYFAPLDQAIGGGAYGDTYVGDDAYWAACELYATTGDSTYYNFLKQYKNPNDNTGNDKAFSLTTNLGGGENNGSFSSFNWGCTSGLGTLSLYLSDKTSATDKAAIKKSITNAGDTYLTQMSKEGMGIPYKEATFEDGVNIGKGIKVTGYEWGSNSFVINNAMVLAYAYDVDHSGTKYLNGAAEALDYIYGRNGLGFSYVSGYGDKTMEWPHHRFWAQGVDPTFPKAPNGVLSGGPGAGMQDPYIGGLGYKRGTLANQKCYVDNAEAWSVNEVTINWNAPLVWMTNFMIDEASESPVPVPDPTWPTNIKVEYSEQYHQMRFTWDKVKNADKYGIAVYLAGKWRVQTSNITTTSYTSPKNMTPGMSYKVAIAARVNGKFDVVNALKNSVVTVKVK
T4 sequence (E9SHH5 entry or part of it): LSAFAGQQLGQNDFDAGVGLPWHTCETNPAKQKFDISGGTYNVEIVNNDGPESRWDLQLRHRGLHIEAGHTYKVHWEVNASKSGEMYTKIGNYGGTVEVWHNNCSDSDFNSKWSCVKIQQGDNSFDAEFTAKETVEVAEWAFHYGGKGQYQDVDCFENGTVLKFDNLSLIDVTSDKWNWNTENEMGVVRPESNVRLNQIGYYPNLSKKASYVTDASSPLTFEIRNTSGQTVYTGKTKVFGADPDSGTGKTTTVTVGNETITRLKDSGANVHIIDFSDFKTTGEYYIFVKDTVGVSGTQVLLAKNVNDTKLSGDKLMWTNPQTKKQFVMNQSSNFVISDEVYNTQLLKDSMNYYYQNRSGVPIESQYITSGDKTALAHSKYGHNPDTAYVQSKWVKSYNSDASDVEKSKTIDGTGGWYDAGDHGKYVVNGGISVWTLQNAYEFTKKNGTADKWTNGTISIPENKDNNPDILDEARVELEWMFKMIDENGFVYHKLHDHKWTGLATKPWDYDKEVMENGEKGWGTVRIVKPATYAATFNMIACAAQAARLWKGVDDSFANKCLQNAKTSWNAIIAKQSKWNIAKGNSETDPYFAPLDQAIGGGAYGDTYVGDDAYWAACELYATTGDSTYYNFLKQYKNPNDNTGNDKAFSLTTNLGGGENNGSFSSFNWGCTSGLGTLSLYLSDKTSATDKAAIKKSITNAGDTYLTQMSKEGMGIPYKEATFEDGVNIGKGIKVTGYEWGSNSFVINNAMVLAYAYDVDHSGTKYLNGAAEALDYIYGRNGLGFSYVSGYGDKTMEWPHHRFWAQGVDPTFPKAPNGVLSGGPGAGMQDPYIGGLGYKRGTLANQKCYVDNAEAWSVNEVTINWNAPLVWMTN
T5 sequence (E9SHH5 entry or part of it): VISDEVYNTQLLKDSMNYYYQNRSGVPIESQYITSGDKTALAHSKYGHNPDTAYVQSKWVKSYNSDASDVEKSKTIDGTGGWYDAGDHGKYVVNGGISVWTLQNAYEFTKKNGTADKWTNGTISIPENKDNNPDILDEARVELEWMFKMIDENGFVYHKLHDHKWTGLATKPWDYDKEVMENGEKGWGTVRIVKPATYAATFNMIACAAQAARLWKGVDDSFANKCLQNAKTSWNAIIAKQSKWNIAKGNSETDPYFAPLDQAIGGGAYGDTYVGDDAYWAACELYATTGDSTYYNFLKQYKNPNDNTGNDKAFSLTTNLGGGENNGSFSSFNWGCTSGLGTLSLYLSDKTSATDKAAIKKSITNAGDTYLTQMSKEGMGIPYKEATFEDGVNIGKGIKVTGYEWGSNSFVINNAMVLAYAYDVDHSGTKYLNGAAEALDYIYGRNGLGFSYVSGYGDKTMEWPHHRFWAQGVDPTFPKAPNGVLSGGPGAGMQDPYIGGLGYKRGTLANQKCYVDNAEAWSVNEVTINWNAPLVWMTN
T1 sequence (E9SHH5 entry or part of it): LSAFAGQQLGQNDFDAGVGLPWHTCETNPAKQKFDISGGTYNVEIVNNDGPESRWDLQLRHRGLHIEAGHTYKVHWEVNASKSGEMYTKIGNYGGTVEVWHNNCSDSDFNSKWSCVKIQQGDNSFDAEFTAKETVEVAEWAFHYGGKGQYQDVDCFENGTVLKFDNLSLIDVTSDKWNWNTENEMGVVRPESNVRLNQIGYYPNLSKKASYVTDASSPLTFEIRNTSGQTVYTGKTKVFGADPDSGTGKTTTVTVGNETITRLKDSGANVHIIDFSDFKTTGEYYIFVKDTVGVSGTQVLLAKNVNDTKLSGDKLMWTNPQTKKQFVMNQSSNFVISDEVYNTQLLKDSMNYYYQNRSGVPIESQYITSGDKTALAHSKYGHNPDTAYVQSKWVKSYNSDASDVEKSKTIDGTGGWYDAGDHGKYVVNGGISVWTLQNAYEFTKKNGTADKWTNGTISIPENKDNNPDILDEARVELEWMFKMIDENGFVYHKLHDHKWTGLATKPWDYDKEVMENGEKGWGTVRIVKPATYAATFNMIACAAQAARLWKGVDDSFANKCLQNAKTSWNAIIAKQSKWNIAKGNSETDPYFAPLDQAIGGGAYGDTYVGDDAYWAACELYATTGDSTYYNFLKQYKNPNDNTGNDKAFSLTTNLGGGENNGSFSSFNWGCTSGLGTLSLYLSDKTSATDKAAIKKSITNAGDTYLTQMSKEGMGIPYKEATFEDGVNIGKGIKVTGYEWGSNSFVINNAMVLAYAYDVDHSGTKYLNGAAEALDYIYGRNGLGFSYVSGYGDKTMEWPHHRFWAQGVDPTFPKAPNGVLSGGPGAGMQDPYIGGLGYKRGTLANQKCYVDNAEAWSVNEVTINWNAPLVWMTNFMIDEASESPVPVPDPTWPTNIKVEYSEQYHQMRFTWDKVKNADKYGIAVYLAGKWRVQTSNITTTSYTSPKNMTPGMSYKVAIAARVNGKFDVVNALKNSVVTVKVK

Ka (Ra3055 (WT)) | Ka (Ra3055 TM3 [1]) | Ka (Ra3055 TM1 [2]) | Ka (Ra3055 TM2 [3]) | Km (Ra3055 TM1 [4]) | Km (Ra3055 TM2 [5]) | Km (Ra3055 TM4) | Km (Ra3055 TM3 [6]) | SMILES
2.94E4±7.38E3 | 5.06E5±4.41E4 | 6.38E5±1.57E5 | 3.49E4±4.59E3 |  |  |  |  | OC[C@H]1O[C@@H](O[C@H]2[C@H](O)[C@@H](O)[C@H](O[C@H]3[C@H](O)[C@@H](O)[C@H](O[C@H]4[C@H](O)[C@@H](O)[C@H](O[C@H]5[C@H](O)[C@@H](O)C(O)O[C@@H]5CO)O[C@@H]4CO)O[C@@H]3CO)O[C@@H]2CO)[C@H](O)[C@@H](O)[C@@H]1O (some centres unmarked) [G5, cellopentaose]
 |  |  |  | 4.5 ± 0.3 mM | 5.6 ± 0.9 mM | 7.9 ± 3.6 mM | 2.9 ± 0.1 mM | OC[C@H]1O[C@@H](O[C@H]2[C@H](O)[C@@H](O)[C@H](O[C@H]3[C@H](O)[C@@H](O)[C@H](O[C@H]4[C@H](O)[C@@H](O)C(O)O[C@@H]4CO)O[C@@H]3CO)O[C@@H]2CO)[C@H](O)[C@@H](O)[C@@H]1O (some centres unmarked) [G4, cellotetraose]

— publication PMC5066209, “Multiple cellobiohydrolases and cellobiose phosphorylases cooperate in the ruminal bacterium Ruminococcus albus 8 to degrade cellooligosaccharides” (Scientific Reports, 2016)
